Results as given in US9682995B2, “Amino-substituted isothiazoles” (BAYER PHARMA AKTIENGESELLSCHAFT, priority 2013, dated 2017).

Legend:
Experiment in all cases: Kinase Profiling (KINOMEscan)
Format in all cases: binding
[1] = biological target: 456 kinases (of these 395 non-mutant kinases) (Homo sapiens, UniProt Q9Y2K2); details: QSK; 10 μM
[2] = biological target: 456 kinases (of these 395 non-mutant kinases) (Homo sapiens, UniProt O75914); details: PAK3; 10 μM
[3] = biological target: 456 kinases (of these 395 non-mutant kinases) (Homo sapiens, UniProt Q04771); details: ACVR1; 10 μM
[4] = biological target: 456 kinases (of these 395 non-mutant kinases) (Homo sapiens, UniProt P08922); details: ROS1; 10 μM
[5] = biological target: 456 kinases (of these 395 non-mutant kinases) (Homo sapiens, UniProt Q13153); details: PAK1; 10 μM
[6] = biological target: 456 kinases (of these 395 non-mutant kinases) (Homo sapiens, UniProt Q06418); details: TYRO3; 10 μM
[7] = biological target: 456 kinases (of these 395 non-mutant kinases) (Homo sapiens, UniProt P51812); details: 10 μM
[8] = biological target: 456 kinases (of these 395 non-mutant kinases) (Homo sapiens, UniProt P29320); details: EPHA3; 10 μM
[9] = biological target: 456 kinases (of these 395 non-mutant kinases) (Homo sapiens, UniProt P15056, V600E); details: BRAF(V600E); 10 μM
[10] = biological target: 456 kinases (of these 395 non-mutant kinases) (Homo sapiens, UniProt P42338); details: PIK3CB; 10 μM
[11] = biological target: 456 kinases (of these 395 non-mutant kinases) (Homo sapiens, UniProt Q8TD19); details: NEK9; 10 μM
[12] = biological target: 456 kinases (of these 395 non-mutant kinases) (Homo sapiens, UniProt O60674); details: JAK2(JH1domain-catalytic); 10 μM
[13] = biological target: 456 kinases (of these 395 non-mutant kinases) (Homo sapiens, UniProt P54756); details: EPHA5; 10 μM
[14] = biological target: 456 kinases (of these 395 non-mutant kinases) (Homo sapiens, UniProt P42336, M1043I); details: PIK3CA(M1043I); 10 μM
[15] = biological target: 456 kinases (of these 395 non-mutant kinases) (Homo sapiens, UniProt Q9H2K8); details: TAOK3; 10 μM
[16] = biological target: 456 kinases (of these 395 non-mutant kinases) (Mycobacterium tuberculosis, UniProt P9WI81)
[17] = biological target: 456 kinases (of these 395 non-mutant kinases) (Homo sapiens, UniProt Q9BYT3); details: STK33; 10 μM
[18] = biological target: 456 kinases (of these 395 non-mutant kinases) (Homo sapiens, UniProt Q9UM73, L1196M); details: ALK(L1196M); 10 μM
[19] = biological target: 456 kinases (of these 395 non-mutant kinases) (Homo sapiens, UniProt Q13131); details: AMPK-alpha1; 10 μM
[20] = biological target: 456 kinases (of these 395 non-mutant kinases) (Homo sapiens, UniProt P07333); details: 10 μM
[21] = biological target: 456 kinases (of these 395 non-mutant kinases) (Homo sapiens, UniProt Q9P0L2); details: MARK1; 10 μM
[22] = biological target: 456 kinases (of these 395 non-mutant kinases) (Homo sapiens, UniProt P45983); details: JNK1; 10 μM
[23] = biological target: 456 kinases (of these 395 non-mutant kinases) (Homo sapiens, UniProt Q12866); details: MERTK; 10 μM
[24] = biological target: 456 kinases (of these 395 non-mutant kinases) (Homo sapiens, UniProt Q13873); details: BMPR2; 10 μM
[25] = biological target: 456 kinases (of these 395 non-mutant kinases) (Homo sapiens, UniProt Q13233); details: MAP3K1; 10 μM
[26] = biological target: 456 kinases (of these 395 non-mutant kinases) (Homo sapiens, UniProt Q9UEW8); details: STK39; 10 μM
[27] = biological target: 456 kinases (of these 395 non-mutant kinases) (Homo sapiens, UniProt Q9HBH9); details: MKNK2; 10 μM
[28] = biological target: 456 kinases (of these 395 non-mutant kinases) (Homo sapiens, UniProt Q13177); details: PAK2; 10 μM
[29] = biological target: 456 kinases (of these 395 non-mutant kinases) (Homo sapiens, UniProt Q9UQM7); details: CAMK2A; 10 μM
[30] = biological target: 456 kinases (of these 395 non-mutant kinases) (Homo sapiens, UniProt Q13546); details: RIPK1; 10 μM
[31] = biological target: 456 kinases (of these 395 non-mutant kinases) (Homo sapiens, UniProt Q8N5S9); details: CAMKK1; 10 μM
[32] = biological target: 456 kinases (of these 395 non-mutant kinases) (Homo sapiens, UniProt Q00536); details: PCTK1; 10 μM

Chain of 456 kinases (of these 395 non-mutant kinases) (Homo sapiens, UniProt P07333) (P07333 20-972 limits assumed, change not shown): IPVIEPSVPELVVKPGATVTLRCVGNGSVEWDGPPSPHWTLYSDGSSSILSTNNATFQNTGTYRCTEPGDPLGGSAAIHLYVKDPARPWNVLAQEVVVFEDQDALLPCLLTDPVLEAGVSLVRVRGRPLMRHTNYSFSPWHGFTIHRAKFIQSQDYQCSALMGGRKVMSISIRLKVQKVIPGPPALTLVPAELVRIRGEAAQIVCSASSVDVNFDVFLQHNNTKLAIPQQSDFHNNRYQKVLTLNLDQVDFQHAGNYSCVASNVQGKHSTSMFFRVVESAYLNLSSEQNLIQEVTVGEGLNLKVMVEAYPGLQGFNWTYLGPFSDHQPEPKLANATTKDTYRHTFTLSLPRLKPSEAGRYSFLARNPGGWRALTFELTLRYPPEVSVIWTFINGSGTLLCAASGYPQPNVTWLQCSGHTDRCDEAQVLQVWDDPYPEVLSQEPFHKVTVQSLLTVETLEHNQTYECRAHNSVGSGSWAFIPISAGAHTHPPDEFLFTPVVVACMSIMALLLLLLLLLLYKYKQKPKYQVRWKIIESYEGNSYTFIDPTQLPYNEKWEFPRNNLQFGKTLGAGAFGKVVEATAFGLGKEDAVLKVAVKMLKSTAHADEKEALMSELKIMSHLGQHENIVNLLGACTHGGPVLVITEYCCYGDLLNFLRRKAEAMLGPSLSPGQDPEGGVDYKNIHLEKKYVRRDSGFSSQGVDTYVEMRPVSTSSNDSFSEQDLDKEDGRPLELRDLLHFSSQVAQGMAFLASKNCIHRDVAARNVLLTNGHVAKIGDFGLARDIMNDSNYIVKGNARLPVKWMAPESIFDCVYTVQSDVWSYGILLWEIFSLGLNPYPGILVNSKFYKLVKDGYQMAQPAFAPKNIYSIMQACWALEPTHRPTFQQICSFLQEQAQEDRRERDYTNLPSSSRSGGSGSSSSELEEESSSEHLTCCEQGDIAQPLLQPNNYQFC
Chain of 456 kinases (of these 395 non-mutant kinases) (Homo sapiens, UniProt Q13233) (Q13233 2-1512 limits assumed, change not shown): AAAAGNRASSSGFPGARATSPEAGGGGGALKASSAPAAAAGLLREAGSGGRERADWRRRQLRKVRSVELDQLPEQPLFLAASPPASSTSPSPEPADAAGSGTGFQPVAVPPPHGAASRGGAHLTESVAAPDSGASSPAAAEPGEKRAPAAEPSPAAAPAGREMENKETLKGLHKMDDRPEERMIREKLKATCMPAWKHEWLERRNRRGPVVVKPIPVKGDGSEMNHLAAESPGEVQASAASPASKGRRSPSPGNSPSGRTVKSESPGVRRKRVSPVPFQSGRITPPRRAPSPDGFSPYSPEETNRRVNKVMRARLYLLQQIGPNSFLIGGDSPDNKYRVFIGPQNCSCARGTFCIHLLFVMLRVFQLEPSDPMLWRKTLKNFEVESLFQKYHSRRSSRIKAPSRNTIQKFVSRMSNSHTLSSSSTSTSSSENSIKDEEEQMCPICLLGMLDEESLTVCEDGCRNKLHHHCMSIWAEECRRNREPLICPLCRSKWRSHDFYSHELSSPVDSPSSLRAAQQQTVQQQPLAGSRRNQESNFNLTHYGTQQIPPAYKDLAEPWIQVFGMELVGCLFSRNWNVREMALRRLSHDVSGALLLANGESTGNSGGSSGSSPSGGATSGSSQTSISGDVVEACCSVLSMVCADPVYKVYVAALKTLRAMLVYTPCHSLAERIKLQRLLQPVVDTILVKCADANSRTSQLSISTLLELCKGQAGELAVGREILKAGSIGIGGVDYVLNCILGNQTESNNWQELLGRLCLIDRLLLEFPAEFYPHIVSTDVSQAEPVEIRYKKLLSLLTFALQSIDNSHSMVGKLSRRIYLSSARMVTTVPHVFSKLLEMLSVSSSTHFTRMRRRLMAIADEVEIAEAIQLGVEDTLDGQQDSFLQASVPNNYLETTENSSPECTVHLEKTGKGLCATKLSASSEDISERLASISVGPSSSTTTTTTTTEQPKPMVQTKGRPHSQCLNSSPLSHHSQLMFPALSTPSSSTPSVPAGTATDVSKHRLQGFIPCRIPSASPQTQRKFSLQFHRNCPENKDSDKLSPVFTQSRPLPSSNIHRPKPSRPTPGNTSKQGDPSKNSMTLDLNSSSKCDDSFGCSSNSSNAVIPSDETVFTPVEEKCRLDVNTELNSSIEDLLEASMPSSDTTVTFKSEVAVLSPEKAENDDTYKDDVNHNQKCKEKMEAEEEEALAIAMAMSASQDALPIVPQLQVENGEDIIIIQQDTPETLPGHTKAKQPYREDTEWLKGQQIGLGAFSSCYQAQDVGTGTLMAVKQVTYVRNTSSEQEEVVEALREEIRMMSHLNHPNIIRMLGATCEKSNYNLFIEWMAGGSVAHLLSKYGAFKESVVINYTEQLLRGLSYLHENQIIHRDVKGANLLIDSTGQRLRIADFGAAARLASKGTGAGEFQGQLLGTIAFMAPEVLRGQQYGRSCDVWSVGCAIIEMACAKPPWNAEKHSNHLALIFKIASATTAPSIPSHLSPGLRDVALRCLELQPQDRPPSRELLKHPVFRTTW
Chain of 456 kinases (of these 395 non-mutant kinases) (Homo sapiens, UniProt Q13153) (Q13153 2-545 limits assumed, change not shown): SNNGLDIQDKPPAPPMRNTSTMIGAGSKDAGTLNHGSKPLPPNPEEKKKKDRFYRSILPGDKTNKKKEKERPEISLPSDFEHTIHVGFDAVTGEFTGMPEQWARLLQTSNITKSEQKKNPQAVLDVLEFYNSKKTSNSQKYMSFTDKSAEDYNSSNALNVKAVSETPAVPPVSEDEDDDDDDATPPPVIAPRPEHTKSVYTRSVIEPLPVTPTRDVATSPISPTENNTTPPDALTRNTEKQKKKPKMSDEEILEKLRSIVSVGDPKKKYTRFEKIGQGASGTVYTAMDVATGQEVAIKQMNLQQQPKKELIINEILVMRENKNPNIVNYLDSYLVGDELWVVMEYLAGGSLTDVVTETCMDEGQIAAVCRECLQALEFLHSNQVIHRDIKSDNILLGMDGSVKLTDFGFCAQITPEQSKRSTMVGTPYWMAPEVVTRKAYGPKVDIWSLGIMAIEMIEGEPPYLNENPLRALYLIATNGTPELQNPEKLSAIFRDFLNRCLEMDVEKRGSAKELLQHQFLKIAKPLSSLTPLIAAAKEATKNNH
Chain of 456 kinases (of these 395 non-mutant kinases) (Homo sapiens, UniProt P54756) (P54756 25-1037 limits assumed, stated change not applied): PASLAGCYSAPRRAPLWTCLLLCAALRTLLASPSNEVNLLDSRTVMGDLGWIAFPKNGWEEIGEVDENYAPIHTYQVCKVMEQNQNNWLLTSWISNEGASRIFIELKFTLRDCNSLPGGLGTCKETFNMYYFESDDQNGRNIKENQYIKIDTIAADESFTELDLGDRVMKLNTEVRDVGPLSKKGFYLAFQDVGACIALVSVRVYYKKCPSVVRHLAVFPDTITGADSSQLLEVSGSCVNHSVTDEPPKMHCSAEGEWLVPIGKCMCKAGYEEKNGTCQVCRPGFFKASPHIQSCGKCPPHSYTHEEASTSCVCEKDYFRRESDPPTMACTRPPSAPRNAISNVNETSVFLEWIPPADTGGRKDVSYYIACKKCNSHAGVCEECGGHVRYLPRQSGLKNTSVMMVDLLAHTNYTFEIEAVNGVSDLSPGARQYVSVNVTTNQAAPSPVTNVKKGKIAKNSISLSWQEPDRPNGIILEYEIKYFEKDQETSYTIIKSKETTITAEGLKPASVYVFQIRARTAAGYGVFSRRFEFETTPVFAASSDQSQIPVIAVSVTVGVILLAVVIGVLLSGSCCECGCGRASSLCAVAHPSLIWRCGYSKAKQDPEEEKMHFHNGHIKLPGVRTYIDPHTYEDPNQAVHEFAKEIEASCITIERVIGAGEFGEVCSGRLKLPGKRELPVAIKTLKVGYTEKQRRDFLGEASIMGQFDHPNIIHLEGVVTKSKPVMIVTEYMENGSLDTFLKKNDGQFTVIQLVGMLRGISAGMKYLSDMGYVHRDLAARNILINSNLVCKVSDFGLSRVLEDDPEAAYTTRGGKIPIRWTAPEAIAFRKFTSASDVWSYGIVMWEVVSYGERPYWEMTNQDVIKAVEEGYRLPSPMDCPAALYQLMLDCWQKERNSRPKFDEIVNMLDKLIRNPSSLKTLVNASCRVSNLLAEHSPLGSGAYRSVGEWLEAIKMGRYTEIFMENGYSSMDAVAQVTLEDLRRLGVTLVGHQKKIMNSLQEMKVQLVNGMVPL
Chain of 456 kinases (of these 395 non-mutant kinases) (Homo sapiens, UniProt Q8TD19) (Q8TD19 2-979 limits assumed, change not shown): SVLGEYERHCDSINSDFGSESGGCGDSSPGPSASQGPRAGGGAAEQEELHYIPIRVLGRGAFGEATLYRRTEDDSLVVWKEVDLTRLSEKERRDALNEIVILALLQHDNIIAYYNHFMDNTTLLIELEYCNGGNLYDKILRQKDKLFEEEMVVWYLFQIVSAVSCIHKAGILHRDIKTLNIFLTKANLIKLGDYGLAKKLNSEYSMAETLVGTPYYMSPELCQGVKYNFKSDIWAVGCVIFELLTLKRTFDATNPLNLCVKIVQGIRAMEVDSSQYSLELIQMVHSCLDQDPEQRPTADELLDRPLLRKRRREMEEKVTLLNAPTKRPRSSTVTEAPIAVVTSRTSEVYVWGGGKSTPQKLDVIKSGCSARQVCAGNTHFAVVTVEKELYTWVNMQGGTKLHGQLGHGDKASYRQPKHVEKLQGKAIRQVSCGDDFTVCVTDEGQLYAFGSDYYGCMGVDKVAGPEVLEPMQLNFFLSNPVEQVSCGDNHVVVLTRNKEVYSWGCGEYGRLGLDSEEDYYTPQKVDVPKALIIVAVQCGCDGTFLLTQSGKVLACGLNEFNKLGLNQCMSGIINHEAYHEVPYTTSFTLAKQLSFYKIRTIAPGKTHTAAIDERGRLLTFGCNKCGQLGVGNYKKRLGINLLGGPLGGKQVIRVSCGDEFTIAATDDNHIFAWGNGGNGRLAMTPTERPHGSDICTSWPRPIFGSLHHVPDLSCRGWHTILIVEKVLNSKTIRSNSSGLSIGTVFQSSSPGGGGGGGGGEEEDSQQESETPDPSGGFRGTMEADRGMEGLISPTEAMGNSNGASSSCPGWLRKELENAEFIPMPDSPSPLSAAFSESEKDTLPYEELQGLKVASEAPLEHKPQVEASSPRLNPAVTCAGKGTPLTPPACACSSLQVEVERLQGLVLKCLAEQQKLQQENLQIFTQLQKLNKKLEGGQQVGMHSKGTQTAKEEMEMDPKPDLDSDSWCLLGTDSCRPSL

## CCc1ccccc1NC(=O)c1c(C)nsc1Nc1cnc2cc(F)ccc2n1 [Example 20, N-(2-Ethylphenyl)-5-[(6-fluoroquinoxalin-2-yl)amino]-3-methyl-1,2-thiazole-4-carboxamide]
[1]
  % Ctrl @ 10 μM: 91 % Ctrl
[2]
  % Ctrl @ 10 μM: 100 % Ctrl
[3]
  % Ctrl @ 10 μM: 77 % Ctrl
[4]
  % Ctrl @ 10 μM: 89 % Ctrl
[5]
  % Ctrl @ 10 μM: 100 % Ctrl
[6]
  % Ctrl @ 10 μM: 56 % Ctrl
[7]; RSK2(Kin.Dom.1-N-terminal)
  % Ctrl @ 10 μM: 100 % Ctrl
[7]; RSK2(Kin.Dom.2-C-terminal)
  % Ctrl @ 10 μM: 100 % Ctrl
[8]
  % Ctrl @ 10 μM: 95 % Ctrl
[9]
  % Ctrl @ 10 μM: 100 % Ctrl
[10]
  % Ctrl @ 10 μM: 83 % Ctrl
[11]
  % Ctrl @ 10 μM: 78 % Ctrl
[12]
  % Ctrl @ 10 μM: 100 % Ctrl
[13]
  % Ctrl @ 10 μM: 99 % Ctrl
[14]
  % Ctrl @ 10 μM: 76 % Ctrl
[15]
  % Ctrl @ 10 μM: 100 % Ctrl
[16]
  % Ctrl @ 10 μM: 100 % Ctrl
[17]
  % Ctrl @ 10 μM: 100 % Ctrl
[18]
  % Ctrl @ 10 μM: 100 % Ctrl
[19]
  % Ctrl @ 10 μM: 92 % Ctrl
[20]; CSF1R-autoinhibited
  % Ctrl @ 10 μM: 91 % Ctrl
[20]; CSF1R
  % Ctrl @ 10 μM: 100 % Ctrl
[21]
  % Ctrl @ 10 μM: 97 % Ctrl
[22]
  % Ctrl @ 10 μM: 100 % Ctrl
[23]
  % Ctrl @ 10 μM: 98 % Ctrl
[24]
  % Ctrl @ 10 μM: 100 % Ctrl
[25]
  % Ctrl @ 10 μM: 84 % Ctrl
[26]
  % Ctrl @ 10 μM: 100 % Ctrl
[27]
  % Ctrl @ 10 μM: 100 % Ctrl
[28]
  % Ctrl @ 10 μM: 100 % Ctrl
[29]
  % Ctrl @ 10 μM: 88 % Ctrl
[30]
  % Ctrl @ 10 μM: 99 % Ctrl
[31]
  % Ctrl @ 10 μM: 80 % Ctrl
[32]
  % Ctrl @ 10 μM: 100 % Ctrl
